# Measured values from patent publication US12303572B2 (Duke University, priority 2015, dated 2025).
# Tests used:
# [1] = In vitro (phantom) quantitative T2 mapping at 7T, spin-spin relaxation contrast
# Description: Data are provided from quantitative T2 mapping at 7T using a RARE FSE protocol with at least 6 different echo times, at solute concentrations of 10 and 20 mM.
# [2] = Ascorbate T2 enhancement in rodent model of neocortical spreading depression; type: in vivo; settings: slices 3 and 4 mm anterior to bregma, KCl-induced SD in right hemisphere
# Excerpt: FIG. 10. […] The craniectomy site is 1 mm posterior to bregma, a skull landmark representing the posterior third of the underlying brain. The above two rows show T2 images and quantitative color lute T2 maps of signal change in rodent brain that are 3 and 4 mm anterior to bregma, that is, distant from the SD induction site. […] These marked cortical signal changes are consistent with the known hypermetabolic activity that occurs with SD, as also observed with ^18F-FDG PET, and with direct microdialysis and metabolomic determinations.
# Spreading depression (SD) is an experimentally reproducible pathophysiological phenomenon of CNS tissues originally described 60 years ago by Loao. After a focal region of cortex reaches a critical threshold of ionic perturbation, a massive spreading wave of cellular depolarization may begin and spread through gray matter tissue, but remain confined to the gray matter zone in which it was induced, not crossing white matter pathways. […]
# The craniectomy site is 1 mm posterior to bregma, a skull landmark representing the posterior third of the underlying brain. The above two rows show T2 images and quantitiative color lute T2 maps of signal change in rodent brain that are 3 and 4 mm anterior to bregma, that is, distant from the SD induction site. […]
# [3] = Perfusion and viability cardiac imaging with parenteral ascorbate at 7T; type: in vivo; settings: initial i.v. bolus, rat heart
# Description: FIGS. 11A-11B. Perfusion and viability cardiac imaging with parenteral ascorbate. FIG. 11A depicts the two primary imaging planes, coronal and axial, for rat heart imaging at 7T.
# Perfusion and viability cardiac imaging with parenteral ascorbate was assessed. FIG. 11A, depicts the two primary imaging planes, coronal and axial, for rat heart imaging at 7T. Retrospective gating with respiratory coupling was employed to collect images at 7T. The acquisition sequence is moderately T2-weighted and can be further optimized to enhance the contrast effect.
# [4] = T2 contrast changes in guinea pig brain at 7T after i.v. ascorbate formulations; type: in vivo, guinea pigs; settings: 2 g/kg over 60 min slow infusion
# [5] = oral, even at doses more than 100 times the recommended daily allowance; cited from earlier work
# [6] = physiological pH of 7.4; cited from earlier work
Molecule,"T2 contrast effect (T2 relaxation in ms) relative to meglumine or ascorbate alone ([1]; 10 mM, water, neutral pH, FIG. 3D)",T2 signal change in cerebral cortex [2],T2 signal intensity in left ventricle [3],FSE T2 images before and after infusion [4],"change in T2 relaxation ([1]; 10 mM ascorbate with physiological glucose (5 mM) or HCO3- (25 mM), pH 7.0)","pH at which the T2 effect is maximized ([1]; phantoms, FIG. 3C)","lowest concentration with statistically significant negative T2 contrast (signal loss) ([1]; vs control (phosphate-buffered saline), conventional FSE acquisition)","effect of H2O2 on ascorbate T2 enhancement ([1]; μM H2O2, phantoms, FIG. 3B)",plasma concentration [5],fraction present as mono anion [6]
meglumine ascorbate,approximately 4 times,–,–,–,–,–,–,–,–,–
"O=C1O[C@H]([C@@H](O)CO)C(O)=C1O [ascorbate, L-ascorbic acid]",–,clear T2 asymmetry in the right cerebral cortex as compared to the left,transient decrease in T2 signal intensity throughout the left ventricle,dramatic signal intensity differences throughout the brain parenchyma,50%,7.0-7.4,1 to 5 mM,marked synergism,≤ 200 µM,99%
